Data published in patent publication US20230278972A1, “SUBSTITUTED HALOALKYL SULFONANILIDE HERBICIDES” (FMC Corporation, priority 2020, published 2023).

Columns and labels:
Type in all cases: in vivo
[1] = test system: ragweed (common ragweed, Ambrosia artemisiifolia); test: Test A postemergence, ragweed; conditions: Postemergence
Method in brief: (§1)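 Pots: loam soil/sand blend. Pre: directed soil spray at planting. Post: plants 2–10 cm, 1–2 leaf stage. Formulation: non-phytotoxic solvent + surfactant.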

[2] = test system: pigweed (Amaranthus retroflexus); test: Test A preemergence, pigweed; conditions: for Plant response rating, Pigweed: 31 g ai/ha, visual injury, 0 to 100 scale (0 no effect, 100 complete control), approx. 10 days; for Pigweed plant response rating: 125 g ai/ha, visual injury on 0 to 100 scale (0 no effect, 100 complete control), approximately 10 days
Method in brief: (§2)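 Greenhouse pot test in a loam–sand blend; compounds delivered in a non-phytotoxic solvent carrying a surfactant, applied either as a directed spray to soil at seeding or over seedlings 2 to 10 cm high with one to two leaves.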

[3] = test system: ragweed (common ragweed, Ambrosia artemisiifolia); test: Test A preemergence, ragweed; conditions: Preemergence; for Plant response rating, Ragweed: 31 g ai/ha, visual injury, 0 to 100 scale (0 no effect, 100 complete control), approx. 10 days; for Ragweed plant response rating: 125 g ai/ha, visual injury on 0 to 100 scale (0 no effect, 100 complete control), approximately 10 days
Method in brief: as §1

[4] = test system: wheat (Triticum aestivum); test: Test A postemergence, wheat; conditions: Postemergence
Method in brief: as §2

[5] = test system: galium (catchweed bedstraw, Galium aparine); test: Test A postemergence, galium; conditions: Postemergence
Method in brief: as §2

kochia (Bassia scoparia) [6] = test: Test A postemergence, kochia; conditions: Postemergence
Method in brief: as §1

[7] = test system: pigweed (Amaranthus retroflexus); test: Test A postemergence, pigweed; conditions: Postemergence
Method in brief: as §1

[8] = test system: barnyardgrass (Echinochloa crus-galli); test: Test A postemergence, barnyardgrass; conditions: Postemergence, 0 to 100 scale (0 no effect, 100 complete control)
Method in brief: as §2

[9] = test system: Ryegrass, Italian (Italian ryegrass, Lolium multiflorum); test: Test A postemergence, Ryegrass, Italian; conditions: Postemergence
Method in brief: as §1

kochia (Bassia scoparia) [10] = test: Test A preemergence, kochia; conditions: Preemergence; for Plant response rating, Kochia: 31 g ai/ha, visual injury, 0 to 100 scale (0 no effect, 100 complete control), approx. 10 days; for Kochia plant response rating: 125 g ai/ha, visual injury on 0 to 100 scale (0 no effect, 100 complete control), approximately 10 days
Method in brief: as §1

[11] = test system: barnyardgrass (Echinochloa crus-galli); test: Test A preemergence, barnyardgrass; conditions: Preemergence; for Plant response rating, Barnyardgrass: 31 g ai/ha, visual injury, 0 to 100 scale (0 no effect, 100 complete control), approx. 10 days; for Barnyardgrass plant response rating: 125 g ai/ha, visual injury on 0 to 100 scale (0 no effect, 100 complete control), approximately 10 days
Method in brief: as §1

[12] = test system: blackgrass (Alopecurus myosuroides); test: Test A postemergence, blackgrass; conditions: Postemergence, 0 to 100 scale (0 no effect, 100 complete control)
Method in brief: as §1

corn (Zea mays) = test: Test A postemergence, corn; conditions: Postemergence
Method in brief: as §1

[13] = test system: Ryegrass, Italian (Italian ryegrass, Lolium multiflorum); test: Test A preemergence, Ryegrass, Italian; conditions: Preemergence; for Plant response rating, Ryegrass, Italian: 31 g ai/ha, visual injury, 0 to 100 scale (0 no effect, 100 complete control), approx. 10 days; for Ryegrass, Italian plant response rating: 125 g ai/ha, visual injury on 0 to 100 scale (0 no effect, 100 complete control), approximately 10 days
Method in brief: as §1

[14] = test system: Foxtail, Giant (giant foxtail, Setaria faberi); test: Test A preemergence, Foxtail, Giant; conditions: Preemergence; for Plant response rating, Foxtail, Giant: 31 g ai/ha, visual injury, 0 to 100 scale (0 no effect, 100 complete control), approx. 10 days; for Foxtail, Giant plant response rating: 125 g ai/ha, visual injury on 0 to 100 scale (0 no effect, 100 complete control), approximately 10 days
Method in brief: as §1

[15] = test system: Foxtail, Giant (giant foxtail, Setaria faberi); test: Test A postemergence, Foxtail, Giant; conditions: Postemergence
Method in brief: as §1

[16] = 31 g ai/ha, visual injury on 0 to 100 scale (0 no effect, 100 complete control), approx. 10 days
[17] = 125 g ai/ha, 0 to 100 scale (0 no effect, 100 complete control)
[18] = 125 g ai/ha, visual injury approx. 10 days, 0 to 100 scale (0 no effect, 100 complete control)
[19] = 125 g ai/ha, visual injury approx. 10 days

SMILES | Plant response rating, Ragweed [1, 16] | Plant response rating, Ragweed [1, 17] | Plant response rating, Pigweed [2] | Pigweed plant response rating [2] | Plant response rating, Ragweed [3] | Ragweed plant response rating [3] | Plant response rating, Wheat [4, 16] | Plant response rating, Wheat [4, 17] | Plant response rating, Galium [5, 16] | Plant response rating, Kochia (kochia (Bassia scoparia) [6]; [16]) | Plant response rating, Pigweed [7, 16] | Plant response rating, Pigweed [7, 17] | Plant response rating, Barnyardgrass ([8]; 31 g ai/ha) | Plant response rating, Ryegrass, Italian [9, 16] | Plant response rating, Ryegrass, Italian [9, 17] | Plant response rating, Kochia (kochia (Bassia scoparia) [10]) | Kochia plant response rating (kochia (Bassia scoparia) [10]) | Plant response rating, Barnyardgrass [11] | Barnyardgrass plant response rating [11] | Plant response rating, Blackgrass ([12]; 31 g ai/ha) | also measured
CCC(=O)OCN(c1cc(C2=NOC3(CCCC3)C2)c(C)cc1C)S(=O)(=O)C(F)(F)F [Compound 144] | 0 | 30 | 70 | 50 | 0 | 30 | 0 | 60 | 30 | 10 | 20 | 40 | 0 | 0 | 0 | 0 | 30 | 20 | 100 | 0 | Plant response rating, Galium [5, 18]: 60; Plant response rating, Kochia (kochia (Bassia scoparia) [6]; [18]): 10; Plant response rating, Barnyardgrass [8, 19]: 20; Plant response rating, Blackgrass [12, 19]: 0; Plant response rating, Corn (corn (Zea mays); [16]): 0; Plant response rating, Corn (corn (Zea mays); [18]): 30; Plant response rating, Ryegrass, Italian [13]: 70; Ryegrass, Italian plant response rating [13]: 90; Plant response rating, Foxtail, Giant [14]: 90; Foxtail, Giant plant response rating [14]: 100; Plant response rating, Foxtail, Giant [15, 16]: 0; Plant response rating, Foxtail, Giant [15, 18]: 30
Cc1cc(C)c(N(COC(=O)C2CCCCC2)S(=O)(=O)C(F)(F)F)cc1C1=NOC2(CCCC2)C1 [Compound 148] | 0 | 0 | 30 | 100 | 0 | 20 | 0 | 0 | 0 | 0 | 40 | 40 | 0 | 0 | 0 | 20 | 30 | 20 | 80 | 0 | Plant response rating, Galium [5, 17]: 20; Plant response rating, Kochia (kochia (Bassia scoparia) [6]; [17]): 20; Plant response rating, Barnyardgrass ([8]; 125 g ai/ha): 10; Plant response rating, Blackgrass ([12]; 125 g ai/ha): 0; Plant response rating, Corn (corn (Zea mays); [16]): 0; Plant response rating, Corn (corn (Zea mays); [17]): 0; Plant response rating, Ryegrass, Italian [13]: 30; Ryegrass, Italian plant response rating [13]: 100; Plant response rating, Foxtail, Giant [14]: 40; Foxtail, Giant plant response rating [14]: 100; Plant response rating, Foxtail, Giant [15, 16]: 0; Plant response rating, Foxtail, Giant [15, 17]: 0
Cc1cc(C)c(N(COC(=O)c2ccccc2)S(=O)(=O)C(F)(F)F)cc1C1=NOC2(CCCC2)C1 [Compound 149] | 0 | 20 | 30 | 70 | 0 | 0 | 0 | 0 | 0 | 0 | 0 | 40 | 10 | 0 | 0 | 0 | 0 | 0 | 0 | 0 | Plant response rating, Galium [5, 17]: 60; Plant response rating, Kochia (kochia (Bassia scoparia) [6]; [17]): 10; Plant response rating, Barnyardgrass ([8]; 125 g ai/ha): 40; Plant response rating, Blackgrass ([12]; 125 g ai/ha): 20; Plant response rating, Corn (corn (Zea mays); [16]): 0; Plant response rating, Corn (corn (Zea mays); [17]): 0; Plant response rating, Ryegrass, Italian [13]: 50; Ryegrass, Italian plant response rating [13]: 50; Plant response rating, Foxtail, Giant [14]: 30; Foxtail, Giant plant response rating [14]: 80; Plant response rating, Foxtail, Giant [15, 16]: 0; Plant response rating, Foxtail, Giant [15, 17]: 30
